Values joined by “and” are separate entries in the source; they are usually repeats but may differ in a detail not shown here. Equal values may be shown once. “Also recorded” adds a separate entry of the source. Read-outs that look alike come from different tables or passages of the source.
Tests used:
[1] = test system: patients with FPHL or MPHL; test: Randomized double-blind study of 0.45 mg sublingual minoxidil, week 8 interim hair assessments (Example 8); format: in vivo, human
Protocol: Participants receive study medication for 24 weeks followed by a follow-up visit 4 weeks later.
The aim is to enroll 40 participants.
Number of participants completed Week 8: 12 (2 females, 10 males). […] This timepoint represents a third of the planned treatment period for the study (24 weeks). Data from these 12 participants have been analysed at the 8 week mark. Analysis was performed blind as the study is still ongoing.
The minimum criteria for hair loss severity in female participants is a Grade 2 and maximum is Grade 5. ISA at Screening was Sinclair Scale 2 and 3 for each female participant. […] As the study is ongoing and medication blind still stands, the final outcome of change in hair density (at Week 24) cannot be concluded in this report. The minimum criteria for enrolment for male participants is Grade III-Vertex and maximum is VI.
Standardized global photography are taken at Study Weeks 0 (prior to dispensing of medication) and 8. Subsequent Week 16, 24 and 28 visits will also include global photography. A vertex and frontal scalp photograph is taken from a fixed height with a dedicated SLR camera. Current collated global photographs for all 12 patients were assessed by a blinded assessor. Comparison photographs between Baseline and Week 8 was provided to the designated blinded assessor.
Initial assessment of Dermatology Life Quality Index (DLQI) for males and Women's AGA Quality of Life Questionnaire (WAA-QOL): Responses by female participants was generally more negative corresponding to a higher score at both Baseline and Week 8 visits. The impact on Quality of Life was more pronounced in comparison to the male participants. […] A full score of 38 represented dissatisfaction with current hair growth. The mean score was 25 (SD: 2.19) at Week 0 and 24.7 (SD: 4.08) at Week 8. The median score from all 10 male participants was 24.5 and 25 respectively. Both female patients reported an average of Grade 3 with the Sinclair Scale (FIG. 1 above) at Baseline visit and subsequent Week 8 visit. This was consistent with the Investigator's grade of their hair loss severity.

[2] = Stability and beyond use of minoxidil and compounded dosage forms; format: physicochemical; settings: 110° C. for 30 minutes
[3] = cited from earlier work; for mean serum concentration after topical application: scalp, twice daily; for peak serum concentration: one hour post-dose
men with MPHL = settings: cited from earlier work
[4] = Assessment of sublingual minoxidil on patient blood pressure (Example 5); settings: 2.5 mg sublingual troche, 5 individuals, monitored 6 hours post administration
[5] = Minoxidil serum levels after a single sublingual dose (Example 7); settings: for minoxidil in the serum after 2 hours: single sublingual dose 0.45 mg
men and women with AGA = test: Hair regrowth by macrophotography hair counts and global photography (Example 7); format: in vivo, human
Protocol: Hair counts were performed on dermatoscopic images taken at baseline and after 6 weeks. […] Steady state serum levels were measured after 8 weeks of daily dosing.

women = test: Hair count after 12 weeks of daily sublingual minoxidil troche (Example 6); format: in vivo, human; settings: individual patients 1-3, listed as sublingual minoxidil
[6] = for blood pressure after first dose / at time of peak concentration: single sublingual dose 0.45 mg; for adverse events / side effects: sublingual minoxidil 0.45 mg, b166: 30 patients, 2 to 12 months
Protocol: (§1) Hair counts were performed on dermatoscopic images taken at baseline and after 6 weeks. […] Steady state serum levels were measured after 8 weeks of daily dosing. 13 patients had hair counts performed.

[7] = test system: women aged 20-68 with Sinclair stages 2-5 FPHL; test: Head to head study topical 5% minoxidil once daily vs oral minoxidil 1 mg daily, 24 weeks (data on file); format: in vivo, human; settings: for additional hairs on scalp from increase in hair density: scalp area 630 cm^2; for mean increase in terminal hair count: 24 weeks
[8] = cited from earlier work
[9] = for minoxidil in serum samples at steady state: 0.45 mg sublingually daily for a minimum of 6 weeks
Protocol: as §1

[10] = Baseline vs Week 8, blinded assessor, blind not broken
[11] = 0.45 mg sublingually daily, minimum 6 weeks, 13 patients
[12] = 0.45 mg sublingually once daily
[13] = 0.25 mg sublingual troche daily, 12 weeks
[14] = 0.25 mg sublingual troche daily
[15] = 30 patients, sublingual minoxidil for between 2 and 12 months

thermal stability [2]: stable | minoxidil in the serum after 2 hours ([5]; listed as sublingual minoxidil): no detectable minoxidil | circulating minoxidil after 1 hour ([5]; sublingual dosing): undetectable | respiratory rate and tympanic temperature (12 participants): within normal range | biochemical abnormality [6, 15]: No biochemical abnormality was detected | minoxidil in serum samples at steady state [9]: No minoxidil was detected | minoxidil in serum samples at steady state ([9]; listed as sublingual minoxidil): not detected | accumulation with continuous dosing ([9]; continuous sublingual dosing): does not accumulate
Compound: Nc1cc(N2CCCCC2)nc(N)[n+]1[O-] [minoxidil, 2,4-Diamino-6-piperidinopyrimidine 3-oxide]
Investigator scalp assessment, Sinclair Scale, change at Week 8 ([1]; 0.45 mg sublingual once daily, individual female participants, blind not broken, listed as sublingual minoxidil): slight increase from grade 3 to 2; also recorded: no change | Men's Hair Growth Questionnaire median score at Week 8 ([1]; 10 male participants): 25 | Men's Hair Growth Questionnaire scores, Week 0 vs Week 8 ([1]; 10 male participants): No significant difference | Men's Hair Growth Questionnaire mean score at Week 8 ([1]; 10 male participants, full score 38 = dissatisfaction): 24.7 (SD: 4.08) | participants (of 12) whose assessment suggests a slight to moderate increase in hair density [1, 10]: Eight | participants (of 12) whose global photography suggests a decrease in hair density [1, 10]: 2 participants | patient reported Sinclair Scale grade at Week 8 (average) ([1]; both female patients, same at Baseline): 3 Grade | mean serum concentration after topical application ([3]; 2% minoxidil (20 mg/ml)): 0.7 ng/mL | mean serum concentration after topical application ([3]; 5% minoxidil (50 mg/ml)): 1.8 ng/mL | absorption through the gastrointestinal tract ([3]; in vivo, po): > 90% | peak serum concentration ([3]; oral dose 2.5 mg): 18.5 ng/mL | peak serum concentration ([3]; oral dose 5 mg): 41 ng/mL | highest serum level recorded ([3]; topical application): 18.2 ng/mL | men with MPHL with arrest of hair loss or mild to moderate hair regrowth (men with MPHL; applied topically): approximately 60% | average increase in hair count (men with MPHL; topical, 5% concentration, 12 months): 12.3% | adverse symptoms, postural hypotension or change in blood pressure [4]: No adverse symptoms, postural hypotension or change in blood pressure was noted | minoxidil in the serum after 2 hours [5]: no detectable minoxidil; also recorded: undetectable | change in hair counts on frontal and vertex areas, all patients (men and women with AGA; 0.45 mg sublingually daily, 6 weeks, 13 patients): increased terminal hairs; also recorded: increase in hair counts | hair density, clinic assessment (men and women with AGA; 0.45 mg sublingually daily, minimum 6 weeks, 2 patients): moderate increase (+2) | mean increase in frontal scalp terminal hairs (men and women with AGA; [11]): 69.13 hairs/cm^2 | mean increase in vertex scalp terminal hairs (men and women with AGA; [11]): 97.38 hairs/cm^2 | range of increase in frontal scalp terminal hairs (men and women with AGA; [11]): 4-133 hairs/cm^2 | range of increase in vertex scalp terminal hairs (men and women with AGA; [11]): 31-253 hairs/cm^2 | hair regrowth compared with topical or oral minoxidil (men and women with AGA; [12]): greater and detected earlier | increase from baseline in hair count on the vertex scalp (men and women with AGA; [12]): 52.5% | increase from baseline in hair count over the frontal scalp (men and women with AGA; [12]): 36.5% | hair regrowth compared with topical or oral minoxidil (men and women with AGA; 0.45 mg sublingually once daily, listed as sublingual minoxidil): grows more hair | midline hair density, blinded assessment of global photography (men and women with AGA; 0.45 mg sublingually, 8 weeks, 5 of the patients): slight increase | scalp global photographs at 6 weeks (men and women with AGA; 0.45 mg sublingually, all patients): either mild or moderate improvement | terminal hair count at 12 weeks (figure legend) (women; [13]): 123 and 186 and 71 | vellus hair count at 12 weeks (women; [13]): 6 and 13 | total hair count at 12 weeks (women; 0.25 mg sublingual troche daily, 12 weeks, scalp section): 129 and 199 and 84 | increase in total hair count from baseline to 12 weeks (women; [14]): 21 hairs and 32 hairs and 23 hairs | percent increase in total hair count from baseline to 12 weeks (women; [14]): 19.4% and 19.2% and 37.7% | Hair Count at week 12 (women; Table 1, terminal hairs, 0.25 mg sublingual troche daily): 71 and 123 and 186 | Percentage increase (women; Table 1, week 12 vs baseline terminal hair count): 42% and 23% and 23.2% | adverse events at Week 8 visit (0.45 mg sublingual once daily, 12 participants, blind not broken): No significant adverse events | blood pressure readings, day of randomization vs Week 8 (12 participants): not significant | safety blood profile (Week 8, 12 participants): within the normal range | hypertrichosis, tachycardia, fluid retention or postural hypotension [6, 15]: No patient developed hypertrichosis, tachycardia, fluid retention or postural hypotension | mean blood pressure [6, 15]: no reduction | blood pressure after first dose / at time of peak concentration [6]: unaffected | blood pressure after first dose / at time of peak concentration ([6]; listed as sublingual minoxidil): no change | adverse events / side effects [6]: No adverse events were noted | adverse events / side effects ([6]; listed as sublingual minoxidil): No side effects were reported | additional hairs on scalp from increase in hair density ([7]; 7 hair/cm^2 increase (topical group)): 4600 hairs | additional hairs on scalp from increase in hair density ([7]; 27 hair/cm^2 increase (oral group)): 17,000 hairs | mean increase in terminal hair count ([7]; oral minoxidil 1 mg daily): 27 /cm^2 | mean increase in terminal hair count ([7]; topical 5% minoxidil once daily): 7 /cm^2 | effect on blood pressure in hypertensive patients ([8]; oral, 5 to 100 mg daily): profound reduction in blood pressure | effect on blood pressure of normotensive individuals ([8]; oral, 5 to 100 mg daily): minimal effect | effect on blood pressure or pulse rate ([8]; topical): minimal effect | serum concentration threshold for any hemodynamic response ([8]; twelve hour steady state intravenous infusions (Ferry et al., 1996)): 20 ng/mL
